Source: publication PMC13252604, “First Generation Proteolysis Targeting Chimeras (PROTACs) for the Treatment of Progeria” (Advanced Science, 2026)

Columns and labels:
[1] = test system: HGADFN167 Lmna^G608G/G608G fibroblasts; assay: Immunoblot and immunocytofluorescence analysis in human progeroid cells (Ki‐67, nuclei, pH2AX, H3K9Me3); type: cell-based; conditions: HGADFN167, 5 µM, 20 days
Source text: (§1) FIGURE 6 (A) Representative cropped immunoblots and progerin quantification in human Lmna^G608G/G608G fibroblasts. MW, molecular weight (in kDa) markers. […] (B) PROTAC 2 increases cell proliferation (upper panels) and decreases the number of misshapen nuclei (lower panels). White arrows highlight selected misshapen nuclei. (C) PROTAC 2 decreases senescence‐associated β‐galactosidase (SA‐βgal) activity, interleukin (IL) 6, p16 and p21 senescent markers. Bar graphs show mean±sem of 2 (SA‐βgal and p21) or 3 (IL‐6 and p16) independent experiments performed in triplicate. (D) PROTAC 2 decreases phosphorylated histone 2AX (pH2AX) and increases trimethylated histone 3 (H3K9Me3) levels. (E) PROTAC 2 increases the oxygen consumption rate (OCR), ATP production and the number of healthy mitochondria in human progeroid cells. Bar graphs show mean±sem of 2 independent experiments performed in duplicate. In all cases, HGADFN167 Lmna^G608G/G608G (G608G) or HGFDFN168 Lmna^+/+ (WT) fibroblasts, provided by the Progeria Research Foundation, were incubated with vehicle or 2 (5 µM) for 20 days. Data were analysed using one‐way ANOVA followed by Dunnett's post–hoc test vs vehicle (panel A) or vs G608G cells (panels B‐E). ^*, p < 0.05; ^**, p < 0.01; ^***, p < 0.001; ^****, p < 0.0001. Microscopy images are representative of 2 independent experiments and corresponding bar graphs show mean±sem of 4 fields from 2 independent experiments. […]
compound exposure. Then, cells were incubated with compound of interest or DMSO for the appropriate time and lysed with cold laemmli buffer (50 mM Tris-HCl pH 7.4, 150 mM NaCl, 1% Igepal) with a mixture of protease and phosphatase inhibitors (1 mM PMSF, 10 mM NaF, 0.3 mg/mL CalyculinA, 1 mM sodium orthovanadate, 10 mM β-glycerol-phosphate; all from Sigma-Aldrich and complete protease inhibitor cocktail, from Roche). Proteins were denatured at 95 ᵒC for 5 min and the lysates were immediately used or stored at -20 ᵒC until use. Samples were analysed by electrophoresis in polyacrylamide gels (All Kd SDS-PAGE, BioRad) and the proteins transferred to nitrocellulose membranes (GE Healthcare, Amersham). After 1 h of incubation in blocking buffer [20 mM Tris pH 7.6, 150 mM NaCl and 0.1% Tween-20 (TBS-T) with 5% of bovine serum albumin (BSA)], blots were incubated overnight at 4 ᵒC with the corresponding primary antibody: anti-phospho-histone 2AX (Ser139) (EMD Millipore, […]
GAPDH (Cell Signaling, 2118S, 1:5000) and anti-actin (Santa Cruz Biotechnology, sc-376248, 1:500) as antibodies for loading control. Then, membranes were washed (3x10 min) with TBS-T and incubated with the corresponding secondary antibody conjugated with peroxidase (Sigma- Aldrich) for 1 h at rt. […] The bands were quantified by densitometry using the […]

[2] = test system: HGADFN167 Lmna^G608G/G608G fibroblasts; assay: RT-qPCR of senescence markers in human progeroid cells; type: cell-based; conditions: HGADFN167, 5 µM, 20 days
Source text: as §1, with “In all cases, HGADFN167 Lmna^G608G/G608G (G608G) or HGFDFN168 Lmna^+/+ (WT) fibroblasts, provided by the Progeria Research Foundation, were incubated with vehicle or 2 (5 µM) for 20 days.” left out, “0.0001.” for “0.0001. Microscopy images are representative of 2 independent experiments and corresponding bar graphs show mean±sem of 4 fields from 2 independent experiments.”
ferrocyanide, 0.6 mL 5 M NaCl, 0.2 mL 0.2 M MgCl2, (all from Sigma Aldrich) and 6.2 mL of deionized water in a total volume of 20 mL] in the dark in a humidified incubator at 37 °C for 24 h without CO2 supply. Then, an equal volume of the supernatant of each well was transferred to a new 96-well plate for fluorescence measurement. The resultant production of fluorescein was measured using a FluoStar Optima instrument (BMG Labtech) with an excitation of 485 nm and emission at 535 nm. […]
Total RNA was extracted by RNAeasy Mini Kit (Qiagen) according to the manufacturer instructions and subsequently quantified using the NanoPhotometer N60 (Implen). […] Quantitative real-time PCR was run in the QuantStudio 7FLEX (Applied Biosystems) system and results were normalized according to β-actin quantification.
Specific `in-house´ designed primers (see sequence below) were purchased from Metabion. The threshold cycle (Ct) was determined, and the relative gene expression was […]

With `CC1(C)Oc2cc3oc(=O)ccc3cc2C[C@@H]1OC(=O)CCCCCNc1cccc2c1C(=O)N(C1CCC(=O)NC1=O)C2=O` (stereo partly shown) [compound 2] the H3K9Me3 levels [1] was “significantly increased H3K9Me3 levels”, the “cell proliferation (Ki‐67 expression)” value [1] was “enhances cell proliferation” and the “number of misshapen nuclei” value [1] was “significantly reduced the number of misshapen nuclei”. The pH2AX levels [1] was “reduced pH2AX levels to those observed in WT cells”, the “IL‐6 senescent marker” value [2] was “significantly reduced” and the p16 senescent marker [2] was “significantly reduced”. The p21 senescent marker [2] was “significantly reduced”.
